Results published in PMC10447463, “Data-mining unveils structure–property–activity correlation of viral infectivity enhancing self-assembling peptides” (Nature Communications, 2023).
Where two headings read alike, the source gives them in different places.

Columns and labels:
[1] = system: HIV-1 infection of TZM-bl cells; test: HIV-1 infectivity enhancement assay, β-galactosidase luminescence; assay type: cell-based; conditions: for Log10 Infection Rel EF-C: log10 of infection relative to EF-C; for Absolute Infectivity / RLU /s (Feb2021): figures match the 1.3 µM column; for Log10 Inf. rel. to EF-C: log10 of HIV-1 infection of TZM-bl cells relative to EF-C, Fig S15 source data, asymmetric std dev errors
[2] = assay type: physicochemical; set-up: key to Fibril / Fibril Formation / TEM 2cat / Fibril: 1 = fibrils present; 0 non-fibrillar structures; conditions: for Fibril / Fibril Formation: TEM, 1 mg/mL, uranyl acetate stain, qualitative
[3] = Zeta-potential measurement; assay type: physicochemical; conditions: for Zeta pot. / mV: 1 mg/mL in PBS pH 7.4 from 10 mg/mL DMSO stock, 1 d RT, 60 µL diluted in 600 µL 1 mM KCl, Zetasizer Nano ZS, Smoluchowski, mean of triplicate; for Zeta-pot. / mV: zeta potential of peptide, Fig S15 source data
Outline: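 Zeta potentials of aggregated peptides come from electrophoretic mobility (Smoluchowski model) in 1 mM KCl after a 1 d RT incubation at 1 mg/mL in PBS, pH 7.4.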

[4] = Turbidity, derived count rate of scattered light; assay type: physicochemical; conditions: for Count Rate / kcps: derived count rate of scattered light at 633 nm, 173°, from zeta-potential measurement, 0.1 mg/mL in 1 mM KCl after 1 d at 1 mg/mL in PBS, turbidity / microscopic aggregation, mean of triplicate
Outline: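 Samples: 1 mg/mL in PBS pH 7.4 (from DMSO), 1 d at RT, then diluted in 1 mM KCl immediately before measurement. Triplicates, two independent runs averaged.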

[5] = HIV-1 infection relative to EF-C, Fig 23 plot, panels A and B, mean of 3 values
[6] = HIV-1 infection relative to EF-C, Fig 23 plot, single data point, replicate 1
[7] = HIV-1 infection relative to EF-C, Fig 23 plot, single data point, replicate 2
[8] = HIV-1 infection relative to EF-C, Fig 23 plot, single data point, replicate 3
[9] = n-fold infection vs virus only, relative to that of EF-C, 1.3 µM peptide
[10] = log10 of derived count rate of scattered light, Figure 6C
[11] = logarithm of count rate in kcps
[12] = Feb2021, infectivity relative to virus only
[13] = Feb2021, log10 of infectivity relative to EF-C
[14] = Feb2021, n-fold infectivity relative to EF-C
[15] = infectivity class (low / medium / high) of each library peptide, main list in c1-c6, same classes repeated in sub-lists of sequences containing the hydrophobicity/charge patterns P+,H0,P+,H0,P0,H0,P0, P+,H0,P0,H0,P0,H0,P0, P+,H0,P0,H0
[16] = derived count rate of scattered light
[17] = Feb2021 run, infectivity n-fold relative to virus alone
[18] = Feb2021 run, log10 of infectivity relative to EF-C
[19] = Feb2021 run, n-fold infectivity relative to EF-C
[20] = derived count rate of scattered light, mean, std deviation in separate column
[21] = infectivity enhancement relative to EF-C (=1), Feb2021 run
[22] = infectivity n-fold relative to virus only, Feb2021 run
[23] = log10 of infectivity relative to EF-C, Feb2021 run

Substance | Log10 Infection Rel EF-C ([1]; Figure 6C) | Inf. rel. EF-C [1, 9] | Fibril / Fibril Formation [2] | Zeta pot. / mV [3] [mV] | Zeta-Potential / mV ([3]; mean, Figure 6C) [mV] | Count Rate / kcps [4] [kcps] | Log10 Count Rate [4, 10] | Log10 Count Rate [4, 11] | Absolute Infectivity / RLU /s (Feb2021) ([1]; Feb2021) [RLU /s] | n-fold to virus (Feb2021) [1, 12] | Log10 of Rel to EFC (Feb2021) [1, 13] | Rel-to EFC (Feb-2021) [1, 14] | infectivity [1, 15] | Log10 Inf. rel. to EF-C [1] | TEM: 1= fibrils, 0= aggregates (micelle), 0.5 = aggregates and fibrils, -1 = nothing obersved, STD prep [2] | Zeta category ( +1 = if > 4 mV;-1 = if < -4 mV; 0 = -4mV to 4 mV) [3] | Zeta-pot. / mV [3] [mV] | other results
KLKLTLT | -1.415 | 0.04 | 1 | 1.713 | 1.713 | 198.5 | 2.298 | 2.298 | – | – | – | – | – | – | – | – | – | Inf. rel. EF-C [1, 5]: 0.03847; Inf. rel. EF-C [1, 6]: 0.0783; Inf. rel. EF-C [1, 7]: 0.01816; Inf. rel. EF-C [1, 8]: 0.01895
CKFKFPF | -1.6054 | 0.02 | 0 | -1.053 | -1.053 | 143.4 | 2.156 | 2.156 | – | – | – | – | – | – | – | – | – | Inf. rel. EF-C [1, 5]: 0.02481; Inf. rel. EF-C [1, 6]: 0.05139; Inf. rel. EF-C [1, 7]: 0.01572; Inf. rel. EF-C [1, 8]: 0.007313
RIRFHIW | -1.984 | 0.01 | 0 | 0.107 | 0.107 | 12.4 | 1.093 | 1.093 | – | – | – | – | – | – | – | – | – | –
HLHLPLL [CN14] | – | – | – | – | – | – | – | – | 133.3 | 0.4211 | -1.999 | 0.01002 | low | -1.9991 | 0.5 | -1 (-1 = if < -4 mV) | -9.053 | Zeta Pot. / mV [3]: -9.053 mV; Zeta Count Rate Category ([4]; category 1 / 0, no key given): 1; Zeta Count Rate / kcps [4, 16]: 200 kcps
RVRVTVT | -1.225 | 0.06 | 0 | -3.713 | -3.713 | 25.33 | 1.404 | 1.404 | – | – | – | – | – | – | – | – | – | Inf. rel. EF-C [1, 5]: 0.05962; Inf. rel. EF-C [1, 6]: 0.04632; Inf. rel. EF-C [1, 7]: 0.07129; Inf. rel. EF-C [1, 8]: 0.06124
KIKIKIKIWWWW [TM12] | – | – | – | – | – | – | – | – | – | – | – | – | medium | -0.2301 | 0 | 1 (+1 = if > 4 mV) | 15.2 | n-fold to virus (Feb2021) [1, 17]: 24.74; Log10 of Rel to EFC (Feb2021) [1, 18]: -0.2301; Rel-to EFC (Feb-2021) [1, 19]: 0.5888; Zeta Pot. / mV ([3]; mean, Std in separate column): 15.2 mV; Zeta Count Rate / kcps [4, 20]: 12420.6 kcps
CEFEFQF [KB12] | – | – | – | – | – | – | – | – | – | – | – | – | low | -2.283 | 0 | -1 (-1 = if < -4 mV) | -13.7 | Rel-to EFC (Feb-2021) [1, 21]: 0.003272; n-fold to virus (Feb2021) [1, 22]: 0.1375; Log10 of Rel to EFC (Feb2021) [1, 23]: -2.485; Zeta Pot. / mV ([3]; mean, Std in separate column): -24.5 mV; Zeta Count Rate / kcps ([4]; derived count rate from zeta measurement, mean): 405.4 kcps; Zeta Count Rate Category ([4]; key not given): 1
KIKIWIW | -0.4875 | 0.33 | 1 | – | 17.23 | 607.7 | 2.784 | 2.784 | – | – | – | – | – | – | – | – | – | –
RGDKIKIQINMWQ [MG9a] | – | – | – | – | – | – | – | – | – | – | – | – | high | -0.1175 | 0.5 | 1 (+1 = if > 4 mV) | 6.59 | Log10 of Rel to EFC (Feb2021) ([1]; Feb2021, Log10 of infectivity relative to EF-C): -0.1175; Rel-to EFC (Feb-2021) ([1]; Feb2021, n-fold enhancement relative to EF-C): 0.763; n-fold to virus (Feb2021) [1, 17]: 32.06; Log10 of Rel to EFC (Feb2021) [1, 18]: -0.1175; Rel-to EFC (Feb-2021) [1, 19]: 0.763; infectivity ([1]; infectivity class (low / medium / high) of the peptide in the sequence-pattern analysis, Fig. S22-A4, class limits not given): high; Zeta category ( +1 = if > 4 mV;-1 = if < -4 mV; 0 = -4mV to 4 mV) ([3]; category from zeta potential): 1 (+1 = if > 4 mV); Zeta Pot. / mV ([3]; mean, Std Zeta in next column): 6.59 mV; Zeta Pot. / mV ([3]; mean, Std in separate column): 6.59 mV; Zeta Count Rate Category ([4]; category 1 or 0 from count rate, key not given): 1; Zeta Count Rate / kcps ([4]; derived count rate of scattered light, mean, std deviation in next column): 1554 kcps; Zeta Count Rate / kcps [4, 20]: 1554 kcps
KFKFQFNMW [BL5 / KB13] | – | – | – | – | – | – | – | – | – | – | – | – | medium | -0.3503 | 1 | 1 (+1 = if > 4 mV) | 22.6 | n-fold to virus (Feb2021) [1, 17]: 18.76; Log10 of Rel to EFC (Feb2021) [1, 18]: -0.3503; Rel-to EFC (Feb-2021) [1, 19]: 0.4464; Zeta Pot. / mV ([3]; mean, Std in separate column): 22.6 mV; Zeta Count Rate / kcps [4, 20]: 610.2 kcps
RLRLTLC [CN13] | – | – | – | – | – | – | – | – | 1334 | 2.165 | -1.288 | 0.05153 | low | -1.288 | 1 | 1 (+1 = if > 4 mV) | 19.67 | Zeta Pot. / mV [3]: 19.67 mV; Zeta Count Rate Category ([4]; category 1 / 0, no key given): 1; Zeta Count Rate / kcps [4, 16]: 125.6 kcps
RVHLGLG | -1.686 | 0.02 | 1 | -6.01 | -6.01 | 28.33 | 1.4523 | 1.4523 | – | – | – | – | – | – | – | – | – | Inf. rel. EF-C [1, 5]: 0.0206; Inf. rel. EF-C [1, 6]: 0.01527; Inf. rel. EF-C [1, 7]: 0.01985; Inf. rel. EF-C [1, 8]: 0.02667
IFQINS [reference compound] | – | 0.06 | 1 | -11.0 | – | 36 | – | – | – | – | – | – | – | – | – | – | – | Log10 Infection Rel EF-C ([1]; Figure 7B): -1.21; Zeta-Potential / mV ([3]; mean, Figure 7B): -10.98 mV
RGEKIKIQINM [CN18] | – | – | – | – | – | – | – | – | 7838 | 10.23 | -0.6134 | 0.2436 | medium | -0.6134 | 1 | 1 (+1 = if > 4 mV) | 15.3 | Zeta Pot. / mV [3]: 15.3 mV; Zeta Count Rate Category ([4]; category 1 / 0, no key given): 1; Zeta Count Rate / kcps [4, 16]: 594.6 kcps
RGECKFKFQF [CN16] | – | – | – | – | – | – | – | – | 7411 | 13.99 | -0.4776 | 0.3329 | medium | -0.4776 | 1 | 1 (+1 = if > 4 mV) | 23.97 | Zeta Pot. / mV [3]: 23.97 mV; Zeta Count Rate Category ([4]; category 1 / 0, no key given): 1; Zeta Count Rate / kcps [4, 16]: 219.3 kcps
KFKFQFF [TG6] | – | – | – | – | – | – | – | – | 2850 | 5.12 | -0.9142 | 0.1218 | medium | -0.9142 | 1 | 0 (0 = -4mV to 4 mV) | 6.903 | n-fold to virus (Feb2021) [1, 17]: 5.12; Log10 of Rel to EFC (Feb2021) [1, 18]: -0.9142; Rel-to EFC (Feb-2021) [1, 19]: 0.1218; Rel-to EFC (Feb-2021) [1, 21]: 0.1218; n-fold to virus (Feb2021) [1, 22]: 5.12; Log10 of Rel to EFC (Feb2021) [1, 23]: -0.9142
